Laboratory results from patent publication US20210169892A1, “MODULATORS OF THE INTEGRATED STRESS PATHWAY” (Calico Life Sciences LLC, priority 2017, published 2021).

System: HEK293T cells carrying the ATF4 luciferase reporter
Assay: ATF4-Luc assay (in vitro model of vanishing white matter disease)
Type: cell-based
Conditions: Homo sapiens, HEK-293T; HEK293T cells with ATF4 luciferase reporter, 1 μg/mL tunicamycin, 7 hours, One Glo luminescence
Procedure, shortened: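 Stable HEK293T line with human ATF4 5′-UTR–firefly luciferase reporter treated with 1 μg/mL tunicamycin plus 200 nM compound for 7 h. Luminescence read; EC50 derived.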

| Structure (SMILES) | EC50 [nM] |
| --- | --- |
| O=C(COc1ccc(Cl)c(F)c1)NC12CC(NC(=O)C3CN(C(=O)[C@@H]4C[C@@H]4F)c4cc(Cl)ccc4O3)(C1)C2 (stereo partly drawn) [Compound 175, 6-chloro-N-{3-[2-(4-chloro-3-fluorophenoxy)acetamido]bicyclo[1.1.1]pentan-1-yl}-4-[(1S,2S)-2-fluorocyclopropane-1-carbonyl]-3,4-dihydro-2H-1,4-benzoxazine-2-carboxamide] | 250 to 500 |
| O=C(COc1ccc(Cl)c(F)c1)NC12CC(NC(=O)C3CN(C(=O)C4CC4(F)F)c4cc(Cl)ccc4O3)(C1)C2 (centres unmarked) [Compound 176, 6-chloro-N-{3-[2-(4-chloro-3-fluorophenoxy)acetamido]bicyclo[1.1.1]pentan-1-yl}-4-(2,2-difluorocyclopropane-1-carbonyl)-3,4-dihydro-2H-1,4-benzoxazine-2-carboxamide] | 250 to 500 |
| O=C(COc1ccc(Cl)c(F)c1)NC12CC(NC(=O)C3CN(C(=O)C4(C(F)(F)F)CC4)c4cc(Cl)ccc4O3)(C1)C2 (centres unmarked) [Compound 177, 6-chloro-N-{3-[2-(4-chloro-3-fluorophenoxy)acetamido]bicyclo[1.1.1]pentan-1-yl}-4-[1-(trifluoromethyl)cyclopropane-1-carbonyl]-3,4-dihydro-2H-1,4-benzoxazine-2-carboxamide] | < 10 |
| O=C(COc1ccc(Cl)c(F)c1)NC12CC(NC(=O)C3CN(C(=O)C(F)(F)C(F)(F)F)c4cc(Cl)ccc4O3)(C1)C2 (centres unmarked) [Compound 178, 6-chloro-N-{3-[2-(4-chloro-3-fluorophenoxy)acetamido]bicyclo[1.1.1]pentan-1-yl}-4-(2,2,3,3,3-pentafluoropropanoyl)-3,4-dihydro-2H-1,4-benzoxazine-2-carboxamide] | < 10 |
| CC1(C(=O)N2CC(C(=O)NC34CC(NC(=O)COc5ccc(Cl)c(F)c5)(C3)C4)Oc3ccc(Cl)cc32)CC1(F)F (centres unmarked) [Compound 179, 6-chloro-N-{3-[2-(4-chloro-3-fluorophenoxy)acetamido]bicyclo[1.1.1]pentan-1-yl}-4-(2,2-difluoro-1-methylcyclopropane-1-carbonyl)-3,4-dihydro-2H-1,4-benzoxazine-2-carboxamide] | 500 to 2000 |
| CS(=O)(=O)CCN1CC(C(=O)NC23CC(NC(=O)COc4ccc(Cl)c(F)c4)(C2)C3)Oc2ccc(Cl)cc21 (centres unmarked) [Compound 180, 6-chloro-N-{3-[2-(4-chloro-3-fluorophenoxy)acetamido]bicyclo[1.1.1]pentan-1-yl}-4-[2-(methanesulfonyl)ethyl]-3,4-dihydro-2H-1,4-benzoxazine-2-carboxamide] | 10 to 50 |
| COCCC(=O)N1CC(C(=O)NC23CC(NC(=O)COc4ccc(Cl)c(F)c4)(C2)C3)Oc2ccc(Cl)cc21 (centres unmarked) [Compound 181, 6-chloro-N-{3-[2-(4-chloro-3-fluorophenoxy)acetamido]bicyclo[1.1.1]pentan-1-yl}-4-(3-methoxypropanoyl)-3,4-dihydro-2H-1,4-benzoxazine-2-carboxamide] | 10 to 50 |
| O=C(COc1ccc(Cl)c(F)c1)NC12CC(NC(=O)C3CN(C(=O)CC(F)(F)F)c4cc(Cl)ccc4O3)(C1)C2 (centres unmarked) [Compound 182, 6-chloro-N-{3-[2-(4-chloro-3-fluorophenoxy)acetamido]bicyclo[1.1.1]pentan-1-yl}-4-(3,3,3-trifluoropropanoyl)-3,4-dihydro-2H-1,4-benzoxazine-2-carboxamide] | 50 to 250 |
| O=C(COc1ccc(Cl)c(F)c1)NC12CC(NC(=O)C3CN(S(=O)(=O)CC(F)(F)F)c4cc(Cl)ccc4O3)(C1)C2 (centres unmarked) [Compound 183, 6-chloro-N-{3-[2-(4-chloro-3-fluorophenoxy)acetamido]bicyclo[1.1.1]pentan-1-yl}-4-(2,2,2-trifluoroethanesulfonyl)-3,4-dihydro-2H-1,4-benzoxazine-2-carboxamide] | 10 to 50 |
| CC(C)(C)OC(=O)CN1CC(C(=O)NC23CCC(NC(=O)COc4ccc(Cl)c(F)c4)(CC2)[C@@H](O)C3)Oc2ccc(Cl)cc21 (stereo partly drawn) [Compound 185, tert-butyl [6-chloro-2-({(3S)-4-[2-(4-chloro-3-fluorophenoxy)acetamido]-3-hydroxybicyclo[2.2.2]octan-1-yl}carbamoyl)-2,3-dihydro-4H-1,4-benzoxazin-4-yl]acetate] | 50 to 250 |
| O=C(COc1ccc(Cl)c(F)c1)NC12CC(NC(=O)C3CC(=O)c4cc(Cl)ccc4O3)(C1)C2 (centres unmarked) [Compound 186, 6-chloro-N-{3-[2-(4-chloro-3-fluorophenoxy)acetamido]bicyclo[1.1.1]pentan-1-yl}-4-oxo-3,4-dihydro-2H-1-benzopyran-2-carboxamide] | < 10 |
| COC(C)(C)CN1CC(C(=O)NC23CC(NC(=O)COc4ccc(Cl)c(F)c4)(C2)C3)Oc2ccc(Cl)cc21 (centres unmarked) [Compound 187, 6-chloro-N-{3-[2-(4-chloro-3-fluorophenoxy)acetamido]bicyclo[1.1.1]pentan-1-yl}-4-(2-methoxy-2-methylpropyl)-3,4-dihydro-2H-1,4-benzoxazine-2-carboxamide] | 10 to 50 |
| O=C(COc1ccc(Cl)c(F)c1)NC12CC(NC(=O)C3CC(NCCO)c4cc(Cl)ccc4O3)(C1)C2 (centres unmarked) [Compound 188, 6-chloro-N-{3-[2-(4-chloro-3-fluorophenoxy)acetamido]bicyclo[1.1.1]pentan-1-yl}-4-[(2-hydroxyethyl)amino]-3,4-dihydro-2H-1-benzopyran-2-carboxamide] | 10 to 50 |
| COC(=O)CNC1CC(C(=O)NC23CC(NC(=O)COc4ccc(Cl)c(F)c4)(C2)C3)Oc2ccc(Cl)cc21 (centres unmarked) [Compound 189, methyl {[6-chloro-2-({3-[2-(4-chloro-3-fluorophenoxy)acetamido]bicyclo[1.1.1]pentan-1-yl}carbamoyl)-3,4-dihydro-2H-1-benzopyran-4-yl]amino}acetate] | 10 to 50 |
| O=C(COc1ccc(Cl)c(F)c1)NC12CCC(NC(=O)C3CC(O)c4cc(Cl)ccc4O3)(CC1)C[C@@H]2O (stereo partly drawn) [Compound 199, 6-chloro-N-{(3S)-4-[2-(4-chloro-3-fluorophenoxy)acetamido]-3-hydroxybicyclo[2.2.2]octan-1-yl}-4-hydroxy-3,4-dihydro-2H-1-benzopyran-2-carboxamide] | < 10 |
| O=C(COc1ccc(Cl)c(F)c1)NC12CCC(NC(=O)C3CCc4cc(F)ccc4O3)(CC1)[C@@H](O)C2 (stereo partly drawn) [Compound 200, N-{(2S)-4-[2-(4-chloro-3-fluorophenoxy)acetamido]-2-hydroxybicyclo[2.2.2]octan-1-yl}-6-fluoro-3,4-dihydro-2H-1-benzopyran-2-carboxamide] | < 10 |
| O=C(COc1ccc(Cl)c(F)c1)NC12CCC(NC(=O)[C@@H]3CCc4cc(F)ccc4O3)(CC1)[C@@H](O)C2 [Compound 201, (2S)—N-{(2S)-4-[2-(4-chloro-3-fluorophenoxy)acetamido]-2-hydroxybicyclo[2.2.2]octan-1-yl}-6-fluoro-3,4-dihydro-2H-1-benzopyran-2-carboxamide] | < 10 |
| O=C(COc1ccc(Cl)c(F)c1)NC12CCC(NC(=O)[C@H]3CCc4cc(F)ccc4O3)(CC1)[C@@H](O)C2 [Compound 202, (2R)—N-{(2S)-4-[2-(4-chloro-3-fluorophenoxy)acetamido]-2-hydroxybicyclo[2.2.2]octan-1-yl}-6-fluoro-3,4-dihydro-2H-1-benzopyran-2-carboxamide] | < 10 |
| O=C(COc1ccc(Cl)c(F)c1)NC12CCC(NC(=O)C3CCc4cc(Cl)ccc4O3)(CC1)[C@@H](O)C2 (stereo partly drawn) [Compound 203, 6-chloro-N-{(2S)-4-[2-(4-chloro-3-fluorophenoxy)acetamido]-2-hydroxybicyclo[2.2.2]octan-1-yl}-3,4-dihydro-2H-1-benzopyran-2-carboxamide] | < 10 |
| O=C(COc1ccc(Cl)c(F)c1)NC12CC(NC(=O)C3CCc4cc(Cl)ccc4O3)(C1)C2 (centres unmarked) [Compound 204, 6-chloro-N-{3-[2-(4-chloro-3-fluorophenoxy)acetamido]bicyclo[1.1.1]pentan-1-yl}-3,4-dihydro-2H-1-benzopyran-2-carboxamide] | < 10 |
